“And” between values parts separate entries of the source, which are not always exact repeats. Equal values may be shown once. No end group written: not given here.
What was measured:
[1] = test system: Vero cells; assay: Cytotoxicity by CCK-8 in Vero cells; type: cell-based; details: for Cell viability (%): 24 h; for cytotoxicity, result in words: CCK-8, 24 h
Procedure: (§1) The experiment was performed as follows. • (1) Vero cells were plated in a 96-well plate at 100 μl per well. • (2) After the cells reached 70%-80% confluence, the MEM medium containing 10% serum was replaced with a MEM medium containing 2% serum. Then, polypeptide BP8, BP10 or BP15 was added to generate gradient concentrations of […], […], 12.5 μM, 25 μM, 50 μM, 100 μM, and 200 μM (final concentrations), respectively. • (3) The samples were collected 24 hours after the addition of the polypeptide, and 10 μl of live cell detection reagent CCK-8 was added to each well and mixed well. • (4) The plate was placed at 37° C. for 4 h. • (5) The absorbance value at OD450 was measured with a microplate reader.

[2] = Cytotoxicity by CCK-8 in Vero cells; type: cell-based; details: 24 h, read-out: Cell viability (%)
Procedure: as §1

[3] = test system: CVB5; assay: Anti-CVB5 effect in RD cells, qRT-PCR; type: cell-based, Coxsackievirus B5; details: Example 20, read-out: IC50 against CVB5
Procedure: • (1) […] were plated in a 24-well cell plate. • (2) After the cells reached 70%-80% confluence, the MEM medium containing 10% serum was replaced with a MEM medium containing 2% serum (0.5 ml/well).

[4] = test system: RD cells; assay: Cytotoxicity by CCK-8 in RD cells; type: cell-based; details: RD cells; for Cell viability (%): 24 h, CCK-8 4 h (Example 18); for cytotoxicity, result in words: CCK-8, 24 h
Procedure: (§2) The experiment was performed as follows. • (1) RD cells were plated in a 96-well plate at 100 μl per well. • (2) After the cells reached 70%-80% confluence, the MEM medium containing 10% serum was replaced with a MEM medium containing 2% serum. Then, polypeptide P2 was added to generate gradient concentrations of 0.01 μM, 0.1 μM, 1 μM, 10 μM, and 100 μM (final concentration), respectively. • (3) The test was performed 24 hours after the addition of the polypeptide, and 10 μl of viable cell detection reagent CCK-8 was added to each well and mixed well. • (4) The plate was incubated at 37° C. for 2 h. • (5) The absorbance value at OD450 was measured with a microplate reader.
as §2, with “P1” for “P2”, “concentrations),” for “concentration),”
(§3) RD cells were used to test the antiviral effect of polypeptide P1. When RD cells reached 80% confluence, polypeptide P1 was added at concentrations of 0 μM (control group), 0.01 μM, 0.1 μM, 1 μM, 10 μM, and 100 μM, respectively. Three parallel wells were used for each concentration. The test was carried out 24 hours later, and the cell viability was detected using the CCK-8 kit.
as §2, with “3A-TAT-EP” for “P2”, “concentrations),” for “concentration),”
as §3, with “3A-TAT-EP.” for “P1.”, “3A-TAT-EP” for “P1”
as §2, with “Then, 3A-EP-DRI or 3A-EP-PEG4-PA” for “Then, polypeptide P2”, “and 50” for “and 100”, “(final concentrations),” for “(final concentration),”
as §3, with “polypeptides 3A-EP-DRI and 3A-EP-PEG4-PA.” for “polypeptide P1.”, “3A-EP-DRI or 3A-EP-PEG4-PA” for “P1”, “50” for “100”, “kit. […]” for “kit.”

[5] = Cytotoxicity by CCK-8 in RD cells; type: cell-based; details: human; for CC50 at 24 h: Table 1 summary, cell line not given, read-out: CC50
Procedure: as §2
as §2, with “P1” for “P2”, “concentrations),” for “concentration),”
as §3
as §2, with “3A-TAT-EP” for “P2”, “concentrations),” for “concentration),”
as §3, with “3A-TAT-EP.” for “P1.”, “3A-TAT-EP” for “P1”
as §2, with “Then, 3A-EP-DRI or 3A-EP-PEG4-PA” for “Then, polypeptide P2”, “and 50” for “and 100”, “(final concentrations),” for “(final concentration),”
as §3, with “polypeptides 3A-EP-DRI and 3A-EP-PEG4-PA.” for “polypeptide P1.”, “3A-EP-DRI or 3A-EP-PEG4-PA” for “P1”, “50” for “100”, “kit. […]” for “kit.”

[6] = RD cells, 24 h, CCK-8 4 h (Example 18), read-out: Cell viability (%)

Row | Compound | Cell viability (%) ([1]; 3.0625 μM) | Cell viability (%) ([1]; 6.125 μM) | Cell viability (%) ([1]; 12.5 μM) | Cell viability (%) ([1]; 25 μM) | Cell viability (%) ([1]; 50 μM) | Cell viability (%) ([1]; 100 μM) | Cell viability (%) ([1]; 200 μM) | cytotoxicity, result in words [1] | viability at 24 h, 3.0625 µM [2] [%] | viability at 24 h, 6.125 µM [2] [%] | viability at 24 h, 12.5 µM [2] [%] | viability at 24 h, 25 µM [2] [%] | viability at 24 h, 50 µM [2] [%] | viability at 24 h, 100 µM [2] [%] | viability at 24 h, 200 µM [2] [%] | IC50 [3] [µM] | Cell viability (%) ([4]; 3.0625 μM) | Cell viability (%) ([4]; 6.125 μM) | Cell viability (%) ([4]; 12.5 μM) | Cell viability (%) ([4]; 25 μM) | also measured
1 | CC(C)C[C@H](NC(=O)[C@H](Cc1c[nH]c2ccccc12)NC(=O)CNC(=O)[C@H](CCCCN)NC(=O)[C@H](CCC(=O)O)NC(=O)[C@H](CCCCN)NC(=O)[C@H](CS)NC(=O)[C@H](Cc1ccc(O)cc1)NC(=O)[C@H](CCC(=O)O)NC(=O)[C@H](CCCNC(=N)N)NC(=O)[C@@H](NC(=O)[C@H](C)NC(=O)[C@H](CCC(=O)O)NC(=O)CNC(=O)[C@H](CO)NC(=O)CNC(=O)[C@H](CCCNC(=N)N)NC(=O)[C@H](CCCNC(=N)N)NC(=O)[C@H](CCCNC(=N)N)NC(=O)[C@H](CCC(N)=O)NC(=O)[C@H](CCCNC(=N)N)NC(=O)[C@H](CCCNC(=N)N)NC(=O)[C@H](CCCCN)NC(=O)[C@H](CCCCN)NC(=O)[C@H](CCCNC(=N)N)NC(=O)CNC(=O)[C@@H](N)Cc1ccc(O)cc1)C(C)C)C(=O)N[C@H](C(=O)N1CCC[C@H]1C(=O)O)C(C)C [BP15] | 105.9733% and 109.128% | 127.0907% and 124.0647% | 120.3949% and 122.777% | 111.0595% and 118.2059% | 109.4499% and 102.9473% | 87.11% and 76.81% | 13.65% and 13.13% and 13.4559% | not toxic to cells within 100 μM | 108 | 125 | 122 | 116 | 112 | 75.8 | 20 | 6.76 | 85.77% and 91.09% | 105.7678% and 97.72% | 98.76% and 95.25% | 92.912% and 95.05% | Cell viability (%) ([4]; 50 μM): 103.6251% and 100.2489%; Cell viability (%) ([4]; 100 μM): 99.4048% and 104.9237%; cytotoxicity, result in words [4]: not toxic to cells within 100 μM; viability at 24 h, 3.0625 µM [5, 6]: 91%; viability at 24 h, 6.125 µM [5, 6]: 104%; viability at 24 h, 12.5 µM [5, 6]: 96.7%; viability at 24 h, 25 µM [5, 6]: 96.7%; viability at 24 h, 50 µM [5, 6]: 107%; viability at 24 h, 100 µM [5, 6]: 96.3%; CC50 at 24 h [5]: > 100 µM
2 | YGRKKRRQRRRGSGEAVREYCKEK [BP10] | 106.2952% and 107.1965% | 119.236% and 118.9785% | 120.8456% and 123.9359% | 117.3689% and 116.0169% | 118.399% and 120.0086% | 92.32% and 94.06% | 86.72% and 82.22% | not toxic to cells within 200 μM | 107 | 119 | 122 | 117 | 109 | 92.8 | 83.1 | 1.33 | 98.99% and 103.5309% | 93.25% and 92.62% | 97.35% and 100.8827% | 99.56% and 96.2169% | Cell viability (%) ([4]; 50 μM): 115.4477% and 116.3934%; Cell viability (%) ([4]; 100 μM): 112.232% and 114.3758%; Cell viability (%) ([4]; 200 μM): 85.18% and 97.54%; cytotoxicity, result in words [4]: not toxic to cells within 200 μM; viability at 24 h, 3.0625 µM [5, 6]: 97.7%; viability at 24 h, 6.125 µM [5, 6]: 98.5%; viability at 24 h, 12.5 µM [5, 6]: 94.8%; viability at 24 h, 25 µM [5, 6]: 109%; viability at 24 h, 50 µM [5, 6]: 109%; viability at 24 h, 100 µM [5, 6]: 107%; viability at 24 h, 200 µM ([5]; RD cells, 200 μM, 24 h, CCK-8 4 h (Example 18), read-out: Cell viability (%)): 79.7%; CC50 at 24 h [5]: > 200 µM
